Measurements taken from paper PMC9065260 (Frontiers in Pharmacology, 2022).
“And” between values parts separate entries of the source, which are not always exact repeats. Identical values can stand only once.

Assays:
KYSE450 cells [1] = assay: MTT assay for cell proliferation and cytotoxicity; type: cell-based; conditions: Homo sapiens, KYSE-450; MTT, 48 h, mean ± SD; read-out: IC50 KYSE450
Procedure: (§3) The compounds were dissolved in DMSO to make a 50 mM stock solution and were diluted to the concentration of working solutions with the complete growth medium before administration.
(§4) Cells were seeded in 96-well plates with densities of 2,200–2,500 cells/well in 100 μL. One day after seeding, the concentration of the test compounds between 0 and 50 μM, 0.1% DMSO was added to cells as control. […] After 48 h, MTT was added and incubated in the plate for 1–4 h in the incubator.

H1650TR cells = assay: MTT assay, drug-resistant cell line; type: cell-based, human; conditions: Homo sapiens; MTT, paclitaxel-resistant lung cancer cell line; read-out: IC50 H1650TR
Procedure: as §3, §4

KYSE450 cells [2] = assay: Plate clone formation assay; type: cell-based, human; conditions: KYSE450, 2.5, 5 and 10 µM, 10 days
Procedure: (§1) Cells were seeded in 6-well plates with a density of 200 cells/well and cultured overnight for attachment. […] Medium with or without compounds was changed every 48 h. When colony formation was visible, the medium was discharged. Then, the colonies were washed with cold PBS, fixed with 4% paraformaldehyde (PFA) for at least 30 min, and then stained with 0.2% crystal violet solution in 100% ethanol for 20 min.

HCC827 cells [3] = assay: Plate clone formation assay; type: cell-based, human; conditions: HCC827, 2.5, 5 and 10 µM, 10 days
Procedure: as §1

HCC827GR cells [4] = assay: Plate clone formation assay; type: cell-based, human; conditions: HCC827GR, 2.5, 5 and 10 µM, 10 days
Procedure: as §1

KYSE450TR cells [5] = assay: Plate clone formation assay; type: cell-based, human; conditions: KYSE450TR, 2.5, 5 and 10 µM, 10 days
Procedure: as §1

[6] = biological target: T1, EGFR mutant protein (672-1210, L858R) (Homo sapiens, UniProt P00533, L858R); assay: Surface plasmon resonance (SPR) EGFR protein affinity; type: binding
T1 construct: the EGFR mutant type (672-1210, L858R, Active MOTIF, cat: 81200); purchased Active MOTIF 81200
Procedure: Surface plasmon resonance experiments were carried out to evaluate the interaction between 3d with the EGFR wild-type (0.468 μg/μL, Active MOTIF, cat: 31165) and the EGFR mutant type (672-1210, L858R, Active MOTIF, cat: 81200). The interaction of erlotinib with wild-type EGFR was also studied. Biacore T-200 (GE healthcare, Waukesha, WI, United States) equipment was used for the study. First, the EGFR wild-type (0.468 μg/μL, Active MOTIF, cat: 31165) and the EGFR mutant type (672-1210, L858R, Active MOTIF, cat: 81200) were covalently immobilized at densities of 2000 response units onto a CM5 sensor chip. Then, 3d dissolved in DMSO was injected at concentrations between 0.064 and 5,000 nM at 25°C. […] During the interaction, the changes in the refractive index were measured in real time to allow the plotting of the results of interaction as response units versus time. The interaction results were analyzed with BIA evaluation 3.0 software.

HCC827 cells [7] = assay: MTT assay for cell proliferation and cytotoxicity; type: cell-based; conditions: Homo sapiens, 48 h, mean ± SD
Procedure: as §3, §4

[8] = tested on: human esophageal epithelial cell SHEE; assay: MTT assay, toxicity against normal cells; type: cell-based; conditions: MTT, normal human esophageal epithelial cells, mean ± SD, read-out: IC50 SHEE
Procedure: Cells were seeded in 96-well plates with densities of 2,200–2,500 cells/well in 100 μL. One day after seeding, the concentration of the test compounds between 0 and 50 μM, 0.1% DMSO was added to cells as control. Approximately 2200-2500 transfected cells in 100 μL were incubated in quintuplicate in 96-well plates. After 48 h, MTT was added and incubated in the plate for 1–4 h in the incubator.

KYSE450TR cells [9] = assay: MTT assay, drug-resistant cell line; type: cell-based, human; conditions: Homo sapiens; MTT, paclitaxel-resistant esophageal cancer cell line; read-out: IC50 KYSE450TR
Procedure: as §3, §4

HCC827GR cells [10] = assay: MTT assay, drug-resistant cell line; type: cell-based, human; conditions: Homo sapiens; MTT, gefitinib-resistant lung cancer cell line; read-out: IC50 HCC827GR
Procedure: as §3, §4

KYSE410TR cells = assay: MTT assay, drug-resistant cell line; type: cell-based, human; conditions: Homo sapiens; MTT, paclitaxel-resistant esophageal cancer cell line; read-out: IC50 KYSE410TR
Procedure: as §3, §4

KYSE450 cells [11] = assay: Flow cytometry detection for cell apoptosis (Annexin V/PI); type: cell-based, human; conditions: 48 h
Procedure: (§2) Cell apoptosis analysis was carried out by flow cytometry using the Annexin V/PI apoptosis methods. […] The cells were harvested and incubated with 250 μL of 1 × Annexin V binding buffer containing 5 μL of PI and 5 μL of FITC Annexin V (final concentration 1.8 μg/ml, Biolegend cat: 640945) for 15 min at room temperature in the dark. Then 200 µL of 1 × binding buffer was added for flow cytometry analysis (BD FACSCalibur™ Flow Cytometer).

KYSE450TR cells [12] = assay: as above; type: cell-based, human; conditions: 48 h
Procedure: as §2

KYSE70TR cells = assay: MTT assay, drug-resistant cell line; type: cell-based, human; conditions: Homo sapiens; MTT, paclitaxel-resistant esophageal cancer cell line; read-out: IC50 KYSE70TR
Procedure: as §3, §4

[13] = tested on: KYSE450 cells (caspase-3, cytochrome-c, PARP); assay: Western blot of apoptosis-related marker proteins; type: cell-based, human; conditions: KYSE450, 4 μM, 6, 12 and 24 h vs control at 0 h
Procedure: KYSE450 cells (3 × 10^5/well) were incubated overnight in 10 square petri dishes and then treated with compound 3d at 4 μM for 0, 6, 12, and 24 h. Cells treated with 0.1% DMSO were used as control. Then, the cells were harvested, and total proteins were extracted. […] The membrane was blocked for 1 h, then incubated overnight with a 1:1000 dilution of anti-caspase-3, anti-cytochrome-c, and anti-PARP, or 1 : 3,000 dilution of anti-β-action primary antibody at 4°C. Finally, 1 : 3,000 anti-rabbit secondary antibodies were incubated for 2 h at room temperature. Protein bands were developed by chemiluminescence.

H1650 cells = assay: MTT assay for cell proliferation and cytotoxicity; type: cell-based; conditions: Homo sapiens, NCI-H1650; MTT, 48 h, mean ± SD; read-out: IC50 H1650
Procedure: as §3, §4

[14] = biological target: T2, EGFR wild-type protein (H672-E410) (Homo sapiens, UniProt P00533); assay: Surface plasmon resonance (SPR) EGFR protein affinity; type: binding; conditions: immobilized wild-type EGFR
T2 construct: purchased Active MOTIF 31165
Procedure: Biacore T-200 (GE healthcare, Waukesha, WI, United States) equipment was used for the study. […] During the interaction, the changes in the refractive index were measured in real time to allow the plotting of the results of interaction as response units versus time. The interaction results were analyzed with BIA evaluation 3.0 software.

KYSE450TR cells [15] = assay: Cell cycle analysis by flow cytometry; type: cell-based, human; conditions: 24 h
Procedure: (§5) KYSE450 and KYSE450TR cells were plated in 6-well plates with a density of 1 × 10^5 cells/well and cultured overnight to attach. […] After trypsinization treatment, the cells were collected by centrifugation. The cell pellet was re-suspended in 70% ethanol at −20°C for at least 3 h. […] Cells were re-transferred to the BD FACSCalibur™ Flow Cytometer. All analyses were performed with FlowJo software v105.3.6.

KYSE70 cells = assay: MTT assay for cell proliferation and cytotoxicity; type: cell-based; conditions: Homo sapiens, KYSE-70; MTT, 48 h, mean ± SD; read-out: IC50 KYSE70
Procedure: as §3, §4

KYSE410 cells = assay: MTT assay for cell proliferation and cytotoxicity; type: cell-based; conditions: Homo sapiens, KYSE-410; MTT, 48 h, mean ± SD; read-out: IC50 KYSE410
Procedure: as §3, §4

KYSE450 cells [16] = assay: Cell cycle analysis by flow cytometry; type: cell-based, human; conditions: 24 h
Procedure: as §5

COCCOc1cc2ncnc(Nc3cccc(-c4cn(Cc5cc(Br)cc(Br)c5)nn4)c3)c2cc1OCCOC [Compound 3d, [6,7-Bis-(2-Methoxy-Ethoxy)-Quinazolin-4-yl]-{3-[1-(3,5-Dibromo-Benzyl)-1H-(1,2,3)Triazol-4-yl]-Phenyl}-Amine]
IC50 (KYSE450 cells [1]): 4.23 ± 0.19 µM | IC50 (H1650TR cells): 5.76 ± 0.33 µM | inhibition effect on colony formation (KYSE450 cells [2]): more significant than that of erlotinib | inhibition effect on colony formation (HCC827 cells [3]): more significant than that of erlotinib | inhibition effect on colony formation (HCC827GR cells [4]): more significant than that of erlotinib | inhibition effect on colony formation (KYSE450TR cells [5]): more significant than that of erlotinib | Kd ([6]; immobilized mutant EGFR (L858R), 25°C): 3.12 µM and 3.13 µM | Rmax ([6]; immobilized mutant EGFR (mEGFR)): 21.16 RU | IC50 (HCC827 cells [7]): 8.17 ± 0.42 µM | IC50 [8]: > 50 µM | IC50 (KYSE450TR cells [9]): 10 ± 0.75 µM | IC50 (HCC827GR cells [10]): 2380 ± 170 nM | IC50 (KYSE410TR cells): 7.91 ± 0.61 µM | proportion of apoptotic cells (KYSE450 cells [11]; KYSE450, 5 μM): 24.50% | proportion of apoptotic cells (KYSE450 cells [11]; KYSE450, 10 μM): 69.64% | proportion of apoptotic cells (KYSE450TR cells [12]; 5 μM): 44.12% | proportion of apoptotic cells (KYSE450TR cells [12]; 10 μM): 48.77% | IC50 (KYSE70TR cells): 7.17 ± 0.73 µM | caspase-3 protein level [13]: higher than those in the control at 0 h | cleaved PARP protein level [13]: higher than those of the control at 0 h | cytochrome-c protein level [13]: higher than those in the control at 0 h | IC50 (H1650 cells): 2990 ± 130 nM | Rmax [14]: 12.9 RU | Kd ([14]; 25°C): 6.88 µM and 6.89 µM | ratio of cells in G0/G1 phase (KYSE450TR cells [15]; 3.5 μM): 34.92% | ratio of cells in G2/M phase (KYSE450TR cells [15]; 3.5 μM): 22.86% | ratio of cells in S phase (KYSE450TR cells [15]; 3.5 μM): 42.22% | ratio of cells in G0/G1 phase (KYSE450TR cells [15]; 7 μM): 37.56% | ratio of cells in G2/M phase (KYSE450TR cells [15]; 7 μM): 23.94% | ratio of cells in S phase (KYSE450TR cells [15]; 7 μM): 38.50% | ratio of cells in G0/G1 phase (KYSE450TR cells [15]; 14 μM): 43.34% | ratio of cells in G2/M phase (KYSE450TR cells [15]; 14 μM): 23.39% | ratio of cells in S phase (KYSE450TR cells [15]; 14 μM): 33.27% | ratio of cells in G0/G1 phase (KYSE450TR cells [15]; 28 μM): 41.19% | ratio of cells in G2/M phase (KYSE450TR cells [15]; 28 μM): 27.28% | ratio of cells in S phase (KYSE450TR cells [15]; 28 μM): 31.53% | cell cycle phase in which cells are arrested (KYSE450TR cells [15]; 3.5-28 μM): G2/M phase | IC50 (KYSE70 cells): 5.43 ± 0.21 µM | IC50 (KYSE410 cells): 6.91 ± 0.4 µM | ratio of cells in G0/G1 phase (KYSE450 cells [16]; KYSE450, 3.5 μM): 57.83% | ratio of cells in G2/M phase (KYSE450 cells [16]; KYSE450, 3.5 μM): 16.5% | ratio of cells in S phase (KYSE450 cells [16]; KYSE450, 3.5 μM): 25.67% | ratio of cells in G0/G1 phase (KYSE450 cells [16]; KYSE450, 7 μM): 56.56% | ratio of cells in G2/M phase (KYSE450 cells [16]; KYSE450, 7 μM): 18.74% | ratio of cells in S phase (KYSE450 cells [16]; KYSE450, 7 μM): 24.7% | ratio of cells in G0/G1 phase (KYSE450 cells [16]; KYSE450, 14 μM): 60.37% | ratio of cells in G2/M phase (KYSE450 cells [16]; KYSE450, 14 μM): 15.47% | ratio of cells in S phase (KYSE450 cells [16]; KYSE450, 14 μM): 24.16% | ratio of cells in G0/G1 phase (KYSE450 cells [16]; KYSE450, 28 μM): 55.21% | ratio of cells in G2/M phase (KYSE450 cells [16]; KYSE450, 28 μM): 20.66% | ratio of cells in S phase (KYSE450 cells [16]; KYSE450, 28 μM): 24.13% | cell cycle phase in which cells are arrested (KYSE450 cells [16]; KYSE450, 3.5-28 μM): G0/G1 phase
